# Key:
# Format in all cases: physicochemical
# [1] = Molecular interaction of salmon calcitonin with polyglycolic acid (co-precipitation, supernatant assay); conditions: for CALCITONIN CONC.: supernatant
# Procedure: The present example was intended to quantify chemical and/or physical association between salmon calcitonin and polyglycolic acid (PGA) having a molecular weight of 40,000 Daltons.
# (§1) Approximately five mg of calcitonin were quantitatively weighed and placed in each of a series of 5 ml volumetric flasks. Hexafluoroacetone sesquihydrate (HFA) was added dropwise until the calcitonin dissolved completely. A 5% PGA in HFA solution was quantitatively added dropwise to each flask to provide a mass of PGA covering the range of 0 to 26.3 mg. The flasks were agitated for 5 minutes to mix the solution. Each flask was then filled to the 5 ml mark with phosphate buffer (pH 7.3). The addition of buffer precipitated the PGA plus any calcitonin that had bound with the polymer. The resulting mixture was centrifuged and the supernatant was analyzed spectrophotometrically for salmon calcitonin content. 26 mg of PGA (40,000 Mw) removed approximately 4.1 mg (83%) of salmon calcitonin.
# [2] = Molecular interaction of salmon calcitonin with poly(glycolic-Co-lactic acid); conditions: for CALCITONIN CONC.: supernatant
# Procedure: as §1
# The procedure of preparing the poly(glycolic-Co-lactic acid) (PGL) having a molecular weight of 50,000 microspheres was similar to that used for PGA, except the hexafluoro-2-propanol was substituted for HFA. Above 8 mg of PGL over 80% of salmon calcitonin was removed.
# [3] = Molecular interaction of salmon calcitonin with polylactic acid; conditions: for CALCITONIN CONC.: supernatant
# Procedure: as §1
# The procedure for preparing the polylactic acid (PLA), dl-type having a molecular weight of 50,000, was similar to that used for PGA, except that methylene chloride was substituted for HFA and the calcitonin was suspended rather than dissolved in the methylene chloride. In addition, since methylene chloride and buffer are not miscible, salmon calcitonin was extracted from methylene chloride in buffer. The aqueous phase was separated, centrifuged and the supernatant was analyzed spectrophotometrically for salmon calcitonin.
# [4] = In vitro release of salmon calcitonin from microspheres; conditions: in the phosphate buffer, pH 7.4, 37° C.
# Procedure: Twenty mg of PGA-salmon calcitonin microspheres were loaded into a test tube. Ten ml of a 0.1M phosphate buffer, pH 7.4, containing EDTA were added and the tubes transferred to a 37° C. water bath. Nineteen μg salmon calcitonin/mg microspheres were released initially as a burst. This initial release was followed by a fast release of 50% of the total drug in less than two hours. At this point, a slow release followed and 22 μg salmon calcitonin/mg microspheres (22% of total drug) was released in the following 29 hours.
substance,measurement,setting,value
salmon calcitonin,salmon calcitonin removed,"[1]; 26 mg of PGA (40,000 Mw)",approximately 4.1 mg
same,salmon calcitonin removed (percent),"[1]; 26 mg of PGA (40,000 Mw)",~83%
same,% CALCITONIN REMOVED,[1]; PGA mass 0.00 mg,1.90%
same,CALCITONIN REMOVED,[1]; PGA mass 0.00 mg,0.099 mg
same,% CALCITONIN REMOVED,[1]; PGA mass 5.73 mg,2.71%
same,CALCITONIN REMOVED,[1]; PGA mass 5.73 mg,0.125 mg
same,% CALCITONIN REMOVED,[1]; PGA mass 7.81 mg,22.3%
same,CALCITONIN REMOVED,[1]; PGA mass 7.81 mg,1.07 mg
same,% CALCITONIN REMOVED,[1]; PGA mass 7.89 mg,6.80%
same,CALCITONIN REMOVED,[1]; PGA mass 7.89 mg,0.340 mg
same,% CALCITONIN REMOVED,[1]; PGA mass 10.4 mg,54.0%
same,CALCITONIN REMOVED,[1]; PGA mass 10.4 mg,2.54 mg
same,% CALCITONIN REMOVED,[1]; PGA mass 11.8 mg,38.0%
same,CALCITONIN REMOVED,[1]; PGA mass 11.8 mg,1.71 mg
same,% CALCITONIN REMOVED,[1]; PGA mass 13.2 mg,32.7%
same,CALCITONIN REMOVED,[1]; PGA mass 13.2 mg,1.64 mg
same,% CALCITONIN REMOVED,[1]; PGA mass 14.0 mg,41.2%
same,CALCITONIN REMOVED,[1]; PGA mass 14.0 mg,2.02 mg
same,% CALCITONIN REMOVED,[1]; PGA mass 15.8 mg,53.7%
same,CALCITONIN REMOVED,[1]; PGA mass 15.8 mg,2.69 mg
same,% CALCITONIN REMOVED,[1]; PGA mass 18.4 mg,77.4%
same,CALCITONIN REMOVED,[1]; PGA mass 18.4 mg,3.87 mg
same,% CALCITONIN REMOVED,[1]; PGA mass 21.0 mg,82.1%
same,CALCITONIN REMOVED,[1]; PGA mass 21.0 mg,4.10 mg
same,% CALCITONIN REMOVED,[1]; PGA mass 22.3 mg,58.6%
same,CALCITONIN REMOVED,[1]; PGA mass 22.3 mg,2.95 mg
same,% CALCITONIN REMOVED,[1]; PGA mass 23.7 mg,72.4%
same,CALCITONIN REMOVED,[1]; PGA mass 23.7 mg,3.62 mg
same,% CALCITONIN REMOVED,[1]; PGA mass 26.3 mg,82.6%
same,CALCITONIN REMOVED,[1]; PGA mass 26.3 mg,4.13 mg
same,CALCITONIN CONC.,[1]; PGA mass 0.00 mg,1.020 mg/mL
same,CALCITONIN CONC.,[1]; PGA mass 5.73 mg,0.895 mg/mL
same,CALCITONIN CONC.,[1]; PGA mass 7.81 mg,0.746 mg/mL
same,CALCITONIN CONC.,[1]; PGA mass 7.89 mg,0.932 mg/mL
same,CALCITONIN CONC.,[1]; PGA mass 10.4 mg,0.432 mg/mL
same,CALCITONIN CONC.,[1]; PGA mass 11.8 mg,0.558 mg/mL
same,CALCITONIN CONC.,[1]; PGA mass 13.2 mg,0.673 mg/mL
same,CALCITONIN CONC.,[1]; PGA mass 14.0 mg,0.576 mg/mL
same,CALCITONIN CONC.,[1]; PGA mass 15.8 mg,0.461 mg/mL
same,CALCITONIN CONC.,[1]; PGA mass 18.4 mg,0.226 mg/mL
same,CALCITONIN CONC.,[1]; PGA mass 21.0 mg,0.175 mg/mL
same,CALCITONIN CONC.,[1]; PGA mass 22.3 mg,0.422 mg/mL
same,CALCITONIN CONC.,[1]; PGA mass 23.7 mg,0.276 mg/mL
same,CALCITONIN CONC.,[1]; PGA mass 26.3 mg,0.174 mg/mL
same,% CALCITONIN REMOVED,[2]; PGL mass 0.00 mg,11.1%
same,CALCITONIN REMOVED,[2]; PGL mass 0.00 mg,0.591 mg
same,% CALCITONIN REMOVED,[2]; PGL mass 2.64 mg,19.9%
same,CALCITONIN REMOVED,[2]; PGL mass 2.64 mg,0.995 mg
same,% CALCITONIN REMOVED,[2]; PGL mass 4.13 mg,43.9%
same,CALCITONIN REMOVED,[2]; PGL mass 4.13 mg,2.15 mg
same,% CALCITONIN REMOVED,[2]; PGL mass 5.52 mg,51.8%
same,CALCITONIN REMOVED,[2]; PGL mass 5.52 mg,2.69 mg
same,% CALCITONIN REMOVED,[2]; PGL mass 6.51 mg,59.8%
same,CALCITONIN REMOVED,[2]; PGL mass 6.51 mg,2.87 mg
same,% CALCITONIN REMOVED,[2]; PGL mass 8.45 mg,80.8%
same,CALCITONIN REMOVED,[2]; PGL mass 8.45 mg,3.64 mg
same,% CALCITONIN REMOVED,[2]; PGL mass 11.53 mg,87.5%
same,CALCITONIN REMOVED,[2]; PGL mass 11.53 mg,4.37 mg
same,% CALCITONIN REMOVED,[2]; PGL mass 13.57 mg,92.5%
same,CALCITONIN REMOVED,[2]; PGL mass 13.57 mg,4.44 mg
same,% CALCITONIN REMOVED,[2]; PGL mass 20.97 mg,91.6%
same,CALCITONIN REMOVED,[2]; PGL mass 20.97 mg,4.95 mg
same,salmon calcitonin removed (percent),[2]; above 8 mg of PGL,over 80%
same,CALCITONIN CONC.,[2]; PGL mass 0.00 mg,0.941 mg/mL
same,CALCITONIN CONC.,[2]; PGL mass 2.64 mg,0.801 mg/mL
same,CALCITONIN CONC.,[2]; PGL mass 4.13 mg,0.550 mg/mL
same,CALCITONIN CONC.,[2]; PGL mass 5.52 mg,0.501 mg/mL
same,CALCITONIN CONC.,[2]; PGL mass 6.51 mg,0.386 mg/mL
same,CALCITONIN CONC.,[2]; PGL mass 8.45 mg,0.172 mg/mL
same,CALCITONIN CONC.,[2]; PGL mass 11.53 mg,0.125 mg/mL
same,CALCITONIN CONC.,[2]; PGL mass 13.57 mg,0.0725 mg/mL
same,CALCITONIN CONC.,[2]; PGL mass 20.97 mg,0.0908 mg/mL
same,% CALCITONIN REMOVED,[3]; PLA mass 0.00 mg,1.03%
same,CALCITONIN REMOVED,[3]; PLA mass 0.00 mg,0.055 mg
same,% CALCITONIN REMOVED,[3]; PLA mass 2.68 mg,40.8%
same,CALCITONIN REMOVED,[3]; PLA mass 2.68 mg,2.04 mg
same,% CALCITONIN REMOVED,[3]; PLA mass 4.81 mg,47.2%
same,CALCITONIN REMOVED,[3]; PLA mass 4.81 mg,2.36 mg
same,% CALCITONIN REMOVED,[3]; PLA mass 10.28 mg,55.4%
same,CALCITONIN REMOVED,[3]; PLA mass 10.28 mg,2.77 mg
same,% CALCITONIN REMOVED,[3]; PLA mass 14.95 mg,72.4%
same,CALCITONIN REMOVED,[3]; PLA mass 14.95 mg,3.62 mg
same,% CALCITONIN REMOVED,[3]; PLA mass 20.40 mg,60.3%
same,CALCITONIN REMOVED,[3]; PLA mass 20.40 mg,3.02 mg
same,CALCITONIN CONC.,[3]; PLA mass 0.00 mg,1.05 mg/mL
same,CALCITONIN CONC.,[3]; PLA mass 2.68 mg,0.592 mg/mL
same,CALCITONIN CONC.,[3]; PLA mass 4.81 mg,0.488 mg/mL
same,CALCITONIN CONC.,[3]; PLA mass 10.28 mg,0.386 mg/mL
same,CALCITONIN CONC.,[3]; PLA mass 14.95 mg,0.276 mg/mL
same,CALCITONIN CONC.,[3]; PLA mass 20.40 mg,0.417 mg/mL
same,time salmon calcitonin remains stable,[4],about 35 hours
